Source: patent publication US10301272B2, “Carboxamide or sulfonamide substituted thiazoles and related derivatives as modulators for the orphan nuclear receptor ROR[γ]” (Phenex Pharmaceuticals AG, priority 2012, dated 2019)
Where two headings read alike, the source gives them in different places.

How the values were obtained:
[1] = target: RORγ ligand binding domain (LBD) (Homo sapiens (Human), UniProt P51449); experiment: TR-FRET Activity Assay (ligand sensing assay, LANCE); conditions: for pIC50 (FRET): TR-FRET, interaction of RORγ-LBD with coactivator peptide
Excerpt: The ligand-binding domain (LBD) of RORγ was expressed as fusion protein with GST in BL-21 (BL3) cells using the vector pDEST15. Cells were lysed by lysozyme-treatment and sonication, and the fusion proteins purified over glutathione sepharose (Pharmacia) according to the manufacturers instructions. For screening of compounds for their influence on the RORγ-peptide interaction, the LANCE technology (Perkin Elmer) was applied. This method relies on the binding dependent energy transfer from a donor to an acceptor fluorophor attached to the binding partner of interest. For ease of handling and reduction of background from compound fluorescence LANCE technology makes use of generic fluorophore labels and time resolved detection assays were done in a final volume of 25 μL in a 384 well plate, in a Tris-based buffer system (20 mM Tris-HCl pH 6.8; 60 mM KCl, 1 mM DTT; 5 mM MgCl2; 35 ng/μL BSA), containing 20-60 ng/well recombinantly expressed RORγ-LBD fused to GST, 200-600 nM N-terminally biotinylated peptide, 200 ng/well Streptavidin-xlAPC conjugate (Prozyme) and 6-10 ng/well Eu W1024-antiGST (Perkin Elmer). DMSO content of the samples was kept at 1%.
After generation of the Tris-based buffer system, the potentially RORγ modulating ligands were diluted. […] The LANCE signal was detected by a Perkin Elmer EnVision™ Multilabel Counter. […] Ligands that promote the complex formation induce a concentration-dependent increase in time-resolved fluorescent signal.
Y is the response. Y starts at Bottom and goes to Top with a sigmoidal shape.
This is identical to the “four parameter logistic equation”. The IC50 values are calculated using this equation.

RORγ = RORγ (Homo sapiens, UniProt P51449); experiment: RORγ Gal4 Reporter Gene Assay; format: cell-based
Procedure: Determination of a ligand mediated Gal4 promoter driven transactivation to quantify ligand binding to RORγ was performed as follows: DNA encoding three different RORγ protein fragments was cloned into vector pCMV-BD (Stratagene). Expression was under control of a CMV promoter and as fusion to the DNA-binding domain of the yeast protein GAL4. Other vectors used were pFR-Luc (Stratagene) as regulated reporter plasmid. pFR-Luc contains a synthetic promoter with five tandem repeats of the yeast GAL4 binding sites that control expression of the Photinus pyralis (American firefly) luciferase gene. In order to improve experimental accuracy the plasmid pRL-CMV was cotransfected. pRL-CMV contains the constitutive CMV promoter, controlling the expression of the Renilla reniformis luciferase.
The medium is supplemented with 10% fetal bovine serum, 0.1 mM nonessential amino acids, 1 mM sodium pyruvate, 1% Glutamax and 100 units Penicilin/[…] per mL at 37° C. in 5% CO2.
For the assay, […] were plated per well in 96 well plates in 100 μL per well, incubated over night at 37° C. in 5% CO2. […] About 4 h after addition of the transfection solution, fresh Minimal Essential Medium (MEM, same composition as used for plating cells, but without serum) was added. Then compound stocks, prediluted in MEM (same composition as used for plating cells) were added (final vehicle concentration not exceeding 0.1%).
All experiments were done at least in triplicates.

[2] = firefly (FF) luciferase, 293T cells, read-out: pIC50 (FF) (converted)
[3] = renilla normalised (RENnorm) luciferase, 293T cells, read-out: pIC50 (REN) (converted)
[4] = firefly (FF) luciferase, 293T cells
[5] = renilla normalised (RENnorm) luciferase, 293T cells

Chain of RORγ ligand binding domain (LBD) (P51449 269-508): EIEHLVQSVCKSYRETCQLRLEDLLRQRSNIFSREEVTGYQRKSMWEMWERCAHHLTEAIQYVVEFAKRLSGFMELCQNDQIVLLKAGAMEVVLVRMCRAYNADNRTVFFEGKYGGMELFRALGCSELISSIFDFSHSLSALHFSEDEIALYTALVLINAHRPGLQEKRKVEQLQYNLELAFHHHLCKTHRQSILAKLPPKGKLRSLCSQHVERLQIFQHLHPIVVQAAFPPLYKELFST
Chain of RORγ (P51449 whole entry, looked up, the tested form may be a part): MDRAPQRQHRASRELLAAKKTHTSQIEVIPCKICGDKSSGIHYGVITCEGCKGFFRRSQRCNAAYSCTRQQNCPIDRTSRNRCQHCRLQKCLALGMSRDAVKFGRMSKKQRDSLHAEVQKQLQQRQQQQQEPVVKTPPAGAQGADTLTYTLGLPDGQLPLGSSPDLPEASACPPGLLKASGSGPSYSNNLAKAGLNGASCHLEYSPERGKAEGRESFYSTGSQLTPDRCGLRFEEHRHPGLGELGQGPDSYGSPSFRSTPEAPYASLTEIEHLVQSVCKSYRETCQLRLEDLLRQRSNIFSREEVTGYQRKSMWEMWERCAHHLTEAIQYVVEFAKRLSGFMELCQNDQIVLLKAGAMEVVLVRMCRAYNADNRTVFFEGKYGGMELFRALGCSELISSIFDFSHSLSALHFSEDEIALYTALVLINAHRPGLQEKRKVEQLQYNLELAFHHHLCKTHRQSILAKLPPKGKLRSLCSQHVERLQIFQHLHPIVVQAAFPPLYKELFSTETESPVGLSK

IC50 [1] [µM] | SMILES | pIC50 (FRET) [1] | pIC50 (FF) (RORγ) | pIC50 (REN) (RORγ) | IC50 (RORγ; [2]) [nM] | IC50 (RORγ; [3]) [nM] | pIC50 (FF) (RORγ; [4]) | pIC50 (REN) (RORγ; [5])
 | CC(C)(C)NS(=O)(=O)c1ccc(-c2oc(C(=O)NC34CCC(C(=O)O)(CC3)C4)nc2CC2CCCCC2)c2ccccc12 [100/23] | 6.1/8.3/8.4 | 6.1/8.3/8.4 | 6.1/8.3/8.4 |  |  |  | 
 | CC(C)(C)NS(=O)(=O)c1ccc(-c2sc(C(=O)N[C@H]3C[C@H](C(=O)O)C3)nc2CC2CCCCC2)c(C(F)F)c1Cl [7/16] | 6.5/8.5/8.5 | 6.5/8.5/8.5 | 6.5/8.5/8.5 |  |  |  | 
 | CC(C)(C)NS(=O)(=O)c1ccc(-c2sc(C(=O)NC3CCS(=O)(=O)CC3)nc2CC2CCCCC2)c(Cl)c1Cl [6/43] | 7.0/8.7/8.7 | 7.0/8.7/8.7 | 7.0/8.7/8.7 |  |  |  | 
 | C[C@H](NC(=O)c1cc(-c2sc(C(=O)NCC(C)(C)O)nc2CC2CCCCC2)cc(C2(C)CC2)c1)C(F)(F)F [8/6] | 7.0/8.2/8.3 | 7.0/8.2/8.3 | 7.0/8.2/8.3 |  |  |  | 
 | CC(C)(C)NS(=O)(=O)c1ccc(-c2sc(C(=O)N[C@H]3C[C@@H](S(C)(=O)=O)C3)nc2CC2CCCCC2)c(Cl)c1Cl [6/42] | 7.2/8.2/8.4 | 7.2/8.2/8.4 | 7.2/8.2/8.4 |  |  |  | 
 | CC(C)(O)CNC(=O)c1nc(CC2CCC2)c(-c2ccc(S(=O)(=O)NC(C)(C)C)c(Cl)c2Cl)s1 [Example 21, 5-(4-(N-(tert-butyl)sulfamoyl)-2,3-dichlorophenyl)-4-(cyclobutylmethyl)-N-(2-hydroxy-2-methylpropyl)thiazole-2-carboxamide] | 7.0/8.1/8.2 | 7.0/8.1/8.2 | 7.0/8.1/8.2 |  |  |  | 
> 20 | O=C(N[C@H]1C[C@H](C(=O)O)C1)c1nc(CC2CCCCC2)c(-c2ccc(OCC(F)(F)F)c3ccccc23)s1 [7/22] |  |  |  | 316 | 631 |  | 
 | CNC(=O)C(C)(C)CCNC(=O)c1nc(CC2CCCCC2)c(-c2ccc(S(=O)(=O)NC(C)(C)C)c(C(F)(F)F)c2)s1 [Example 10/1] | 6.2/7.0/7.1 | 6.2/7.0/7.1 | 6.2/7.0/7.1 |  |  |  | 
 | CC(C)(C)NS(=O)(=O)c1ccc(-c2sc(C(=O)NC3CCS(=O)(=O)CC3)nc2Cc2ccccc2)c2ccccc12 [Example 300, 4-Benzyl-5-(4-(N-(tert-butyl)sulfamoyl)naphthalen-1-yl)-N-(1,1-dioxidotetrahydro-2H-thiopyran-4-yl)thiazole-2-carboxamide] | 7.1/8.2/8.4 | 7.1/8.2/8.4 | 7.1/8.2/8.4 |  |  |  | 
 | CC(C)(C)NS(=O)(=O)c1ccc(-c2sc(C(=O)NC3CCS(=O)(=O)CC3)nc2CC2CCCCC2)c2ccncc12 [21/13] | 6.3/7.9/7.9 | 6.3/7.9/7.9 | 6.3/7.9/7.9 |  |  |  | 
 | CC(C)(C)NS(=O)(=O)c1ccc(-c2oc(C(=O)N[C@H]3C[C@H](C(=O)O)C3)nc2CC2CCCCC2)c2ccccc12 [100/13] | 6.1/7.0/7.1 | 6.1/7.0/7.1 | 6.1/7.0/7.1 |  |  |  | 
 | CC1(c2cc(-c3sc(C(=O)N[C@H]4C[C@H](C(=O)O)C4)nc3CC3CCCCC3)cc(C(F)(F)F)c2)CC1 [9/8] | 6.5/7.1/7.1 | 6.5/7.1/7.1 | 6.5/7.1/7.1 |  |  |  | 
 | CC(C)(C)NS(=O)(=O)c1ccc(-c2sc(C(=O)NCc3ncc(S(C)(=O)=O)s3)nc2CC2CCCCC2)c(Cl)c1Cl [15/7] | 7.2/8.3/8.4 | 7.2/8.3/8.4 | 7.2/8.3/8.4 |  |  |  | 
 | CNS(=O)(=O)c1ccc(-c2sc(C(=O)N3CC4(CCS(=O)(=O)CC4)C3)nc2CC2CCCCC2)c2ccccc12 [14/5] | 6.3/6.6/6.6 | 6.3/6.6/6.6 | 6.3/6.6/6.6 |  |  |  | 
 | NS(=O)(=O)c1c(Cl)cc(-c2sc(C(=O)NC3CCOCC3)nc2CC2CCCCC2)cc1C(F)(F)F [Example 17/1] | 5.6/6.1/6.5 | 5.6/6.1/6.5 | 5.6/6.1/6.5 |  |  |  | 
 | CC1(C)COCCN1Cc1ccc(-c2sc(C(=O)NC3CCS(=O)(=O)CC3)nc2CC2CCCCC2)c2ccccc12 [7/26] | 6.8/7.7/7.9 | 6.8/7.7/7.9 | 6.8/7.7/7.9 |  |  |  | 
 | CC(C)(C)NS(=O)(=O)c1ccc(-c2sc(C(=O)NCC3(C(N)=O)CCOCC3)nc2CC2CCCCC2)cc1C(C)(C)C [Example 6/1] | 6.5/7.5/7.7 | 6.5/7.5/7.7 | 6.5/7.5/7.7 |  |  |  | 

IC50 [1] [µM] | SMILES | pIC50 (FRET) [1] | pIC50 (FF) (RORγ) | pIC50 (REN) (RORγ) | IC50 (RORγ; [2]) [nM] | IC50 (RORγ; [3]) [nM] | pIC50 (FF) (RORγ; [4]) | pIC50 (REN) (RORγ; [5])
 | CC1CCCCN1C(=O)c1nc(C(=O)NCC(C)(C)O)sc1-c1ccc(S(=O)(=O)NC(C)(C)C)c2ccccc12 (stereo not drawn) [304/7] | 6.1/7.3/7.3 | 6.1/7.3/7.3 | 6.1/7.3/7.3 |  |  |  | 
 | CC(C)(C)NS(=O)(=O)c1ccc(-c2sc(C(=O)NC3CSC3)nc2CC2CCCCC2)cc1C(C)(C)O [6/24] | 7.3/7.9/8.0 | 7.3/7.9/8.0 | 7.3/7.9/8.0 |  |  |  | 
 | CC(C)(O)CNC(=O)c1ncc(CC2CCCCC2)c(-c2cc(C(C)(C)C)cc(C(C)(C)C)c2)n1 [Example 207/1] | 6.0/6.2/6.1 | 6.0/6.2/6.1 | 6.0/6.2/6.1 |  |  |  | 
 | CC(C)(C)NS(=O)(=O)c1ccc(-c2sc(C(=O)N3CC4(CCS(=O)(=O)CC4)C3)nc2CC2CCCCC2)c(Cl)c1Cl [6/45] | 7.1/7.9/8.0 | 7.1/7.9/8.0 | 7.1/7.9/8.0 |  |  |  | 
 | CC(C)(C)NS(=O)(=O)c1ccc(-c2oc(C(=O)NCC3(O)CCOCC3)nc2CC2CCCCC2)c2ccccc12 [100/5] | 6.3/8.1/8.2 | 6.3/8.1/8.2 | 6.3/8.1/8.2 |  |  |  | 
 | CC(C)(C)NS(=O)(=O)c1ccc(-c2sc(S(N)(=O)=O)nc2CC2CCCCC2)c2ccccc12 [13/3] | 6.6/7.5/7.7 | 6.6/7.5/7.7 | 6.6/7.5/7.7 |  |  |  | 
 | CC(C)(C)c1cc(-c2nc(S(N)(=O)=O)sc2CC2CCCCC2)cc(C(C)(C)C)c1 [Example 2, 5-(Cyclohexylmethyl)-4-(3,5-di-tert-butylphenyl)thiazole-2-sulfonamide] | 5.9/6.1/6.0 | 5.9/6.1/6.0 | 5.9/6.1/6.0 |  |  |  | 
 | COCC(C)(C)NS(=O)(=O)c1ccc(-c2sc(C(=O)N3CC4(CCS(=O)(=O)CC4)C3)nc2CC2CCCCC2)c2ccccc12 [14/2] | 6.5/7.4/7.4 | 6.5/7.4/7.4 | 6.5/7.4/7.4 |  |  |  | 
 | CC(C)(C)NS(=O)(=O)c1ccc(-c2sc(C(=O)NC3CCOCC3)nc2CC2CCCCC2)cc1C(C)(C)O [6/22] | 6.8/7.7/7.7 | 6.8/7.7/7.7 | 6.8/7.7/7.7 |  |  |  | 
 | CC(C)(C)NS(=O)(=O)c1ccc(-c2sc(C(=O)NC3CCC3)[n+]([O-])c2CC2CCCCC2)c2ccccc12 [Example 22/1] | 6.4 |  |  |  |  | 7.5 | 7.5
 | CC(C)(C)c1cc(-c2sc(S(=O)(=O)NC(=O)OCc3ccccc3)nc2CC2CCCCC2)cc(C2(C)CC2)c1 [Example 12, Benzyl (5-(3-(tert-butyl)-5-(1-methylcyclopropyl)phenyl)-4-(cyclohexylmethyl)thiazol-2-yl)sulfonylcarbamate] | 5.5 |  |  | > 20000 | > 20000 |  | 
 | CC(C)(C)NS(=O)(=O)c1ccc(-c2sc(C(=O)NC3CS(=O)(=O)C3)nc2CC2CCCCC2)cc1C(C)(C)O [15/3] | 6.9/7.9/7.9 | 6.9/7.9/7.9 | 6.9/7.9/7.9 |  |  |  | 
 | O=C(c1nc(CC2CCCCC2)c(-c2ccc(S(=O)(=O)NC3CCOCC3)c3ccccc23)s1)N1CC2(CCS(=O)(=O)CC2)C1 [21/9] | 6.2/7.3/7.4 | 6.2/7.3/7.4 | 6.2/7.3/7.4 |  |  |  | 
 | CC(C)(C)NS(=O)(=O)c1ccc(-c2sc(C(=O)NCCC(C)(C)C(N)=O)nc2CC2CCCCC2)cc1C(F)(F)F [Example 10, N-(4-Amino-3,3-dimethyl-4-oxobutyl)-5-(4-(N-(tert-butyl)sulfamoyl)-3-(trifluoromethyl)phenyl)-4-(cyclohexylmethyl)thiazole-2-carboxamide] | 5.9/6.9/7.0 | 5.9/6.9/7.0 | 5.9/6.9/7.0 |  |  |  | 
 | CC(C)(O)CNC(=O)c1nc(C(F)F)c(-c2ccc(S(=O)(=O)NC(C)(C)C)c3ccccc23)s1 [Example 305, 5-(4-(N-(tert-butyl)sulfamoyl)naphthalen-1-yl)-4-(difluoromethyl)-N-(2-hydroxy-2-methylpropyl)thiazole-2-carboxamide] |  | nt/6.6/7.2 | nt/6.6/7.2 |  |  |  | 
 | CC(C)(C)NS(=O)(=O)c1ccc(-c2sc(C(=O)NC3CCS(=O)(=O)CC3)nc2C2CCC2)c2ccccc12 [300/10] |  | nt/7.2/7.3 | nt/7.2/7.3 |  |  |  | 
 | CC(C)(C)NS(=O)(=O)c1ccc(-c2sc(C(=O)N[C@H]3C[C@H](C(=O)O)C3)nc2CC2CCCCC2)c2ccccc12 [7/9] |  |  |  |  |  | 8.7 | 9.0
